Experimental data from ChEMBL document CHEMBL3853353, “Identification and optimization of a new series of anti-tubercular quinazolinones” (Bioorg Med Chem Lett, 2016).
Values after ≈ are worked out from the molar mass of the structure shown.

Columns and labels:
[1] = test system: Mycobacterium tuberculosis; experiment: (§1) Antimycobacterial activity against Mycobacterium tuberculosis H37Rv infected in Balb/c mouse assessed as bacterial burden in lungs at 12.5 mg/kg, po administered daily through gavage starting on day 2 post infection for 4 days per week for 2 weeks as Vitamin-E/PEG200 formulation each 4 days dosing followed by 2 days compound washout measured on day 12 post infection (reference value: 8 log10CFU); assay type: functional, Lung
[2] = test system: Mycobacterium tuberculosis; experiment: Antimycobacterial activity against Mycobacterium tuberculosis H37Rv incubated for 5 days by Bactiter-Glo assay; assay type: functional; settings: 120 h
[3] = Permeability in human Caco2 cells; settings: caco-2
[4] = Aqueous equilibrium solubility of compound in pH 1 solution at 20 degC; settings: aqueous pH 1 solution
[5] = Half life in Balb/c mouse infected with Mycobacterium tuberculosis H37Rv at 100 mg/kg, po administered through gavage as 90%/10% PEG200/vitamin -E TPGS formulation; assay type: ADME, organism-based; settings: in vivo
Cytochrome P450 3A4 [6] = target: T1, Cytochrome P450 3A4 (Homo sapiens, UniProt P08684); experiment: Inhibition of CYP3A4 in human liver microsomes assessed as 6-beta-hydroxytestosterone metabolite formation using testosterone as substrate incubated for 30 mins by HPLC-MS method
T1 sequence (P08684 whole entry): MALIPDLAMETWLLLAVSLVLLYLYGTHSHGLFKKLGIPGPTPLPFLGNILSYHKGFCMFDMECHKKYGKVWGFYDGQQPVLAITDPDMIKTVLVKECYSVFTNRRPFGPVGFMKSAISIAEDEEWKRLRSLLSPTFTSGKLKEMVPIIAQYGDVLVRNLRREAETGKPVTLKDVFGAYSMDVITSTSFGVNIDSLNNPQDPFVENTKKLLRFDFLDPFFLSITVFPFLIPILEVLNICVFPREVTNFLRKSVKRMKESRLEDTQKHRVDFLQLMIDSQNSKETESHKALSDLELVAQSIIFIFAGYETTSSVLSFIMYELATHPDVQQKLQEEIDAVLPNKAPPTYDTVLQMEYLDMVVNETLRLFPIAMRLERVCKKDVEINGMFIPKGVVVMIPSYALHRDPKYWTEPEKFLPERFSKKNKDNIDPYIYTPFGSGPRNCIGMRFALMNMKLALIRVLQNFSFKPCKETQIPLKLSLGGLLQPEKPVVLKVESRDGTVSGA

[7] = Cytotoxicity against human HepG2 cells assessed as reduction in cell viability after 40 hrs by Celltiter-Glo assay; settings: HepG2 cells
[8] = test system: Mycobacterium tuberculosis; experiment: Antimycobacterial activity against Mycobacterium tuberculosis H37Rv infected in po dosed Balb/c mouse assessed as reduction in bacterial burden in lungs administered daily through gavage starting on day 2 post infection for 8 consecutive days; assay type: functional; settings: Lung, 48 h, read-out: MED
[9] = test system: Mycobacterium tuberculosis; experiment: Ratio of MIC80 for Mycobacterium tuberculosis H37Rv in presence of 25% human serum to MIC80 for Mycobacterium tuberculosis H37Rv; assay type: functional
[10] = test system: Mycobacterium tuberculosis; experiment: Antimycobacterial activity against GFP-tagged Mycobacterium tuberculosis H37Rv infected in mouse RAW264.7 cells incubated for 4 days by Mask blue/Hoechst/FITC staining based fluorescence microscopic analysis; assay type: functional; settings: 96 h
[11] = test system: Mycobacterium tuberculosis; experiment: as §1, with “200” for “12.5”; assay type: functional, Lung
[12] = Protein binding in human plasma at 1 to 10 uM after 4 hrs by LC-MS/MS analysis; assay type: ADME, cell-free; settings: read-out: PPB (converted)
[13] = test system: Mycobacterium tuberculosis; experiment: Antimycobacterial activity against Mycobacterium tuberculosis H37Rv incubated for 5 days in presence of 25% human serum by Bactiter-Glo assay; assay type: functional; settings: 120 h
[14] = AUC in Balb/c mouse plasma infected with Mycobacterium tuberculosis H37Rv at 100 mg/kg, po administered through gavage as 90%/10% PEG200/vitamin -E TPGS formulation; assay type: ADME, organism-based
[15] = Lipophilicity, log P of compound; settings: octanol/water
[16] = test system: Mycobacterium tuberculosis; experiment: Antimycobacterial activity against Mycobacterium tuberculosis H37Rv in 1000 bacteria inoculated agar plate; assay type: functional
[17] = test system: Mycobacterium tuberculosis; experiment: Antimycobacterial activity against Mycobacterium tuberculosis H37Rv infected in Balb/c mouse assessed as bacterial burden in lungs at 10 to 300 mg/kg administered daily through gavage starting on day 2 post infection for 8 consecutive days; assay type: functional, Lung
[18] = Solubility in 90%/10% PEG200/vitamin -E TPGS solution; assay type: physicochemical
[19] = Protein binding in Swiss mouse plasma at 1 to 10 uM after 4 hrs by LC-MS/MS analysis; assay type: ADME, cell-free; settings: read-out: PPB (converted)
[20] = Time at which lung concentration stays above invitro MIC80 in presence of mouse serum in Balb/c mouse infected with Mycobacterium tuberculosis H37Rv at 100 mg/kg, po administered through gavage as 90%/10% PEG200/vitamin -E TPGS formulation; assay type: ADME, organism-based; settings: in vivo
[21] = test system: Mycobacterium tuberculosis; experiment: as §1, with “25” for “12.5”; assay type: functional, Lung
Cytochrome P450 3A4 [22] = target: T1, Cytochrome P450 3A4; experiment: Inhibition of CYP3A4 in human liver microsomes assessed as 1'-hydroxymidazolam metabolite formation using midazolam as substrate incubated for 10 mins by HPLC-MS method
[23] = test system: Mycobacterium tuberculosis; experiment: as §1, with “50” for “12.5”; assay type: functional, Lung
[24] = Aqueous equilibrium solubility of compound in pH 7.4 solution at 20 degC; settings: aqueous pH 7.4 solution
[25] = Oral bioavailability in Swiss mouse at 100 mg/kg administered as single dose through gavage as 90%/10% PEG200/vitamin -E TPGS formulation after 24 hrs; assay type: ADME, organism-based; settings: in vivo
[26] = test system: Mycobacterium tuberculosis; experiment: as §1, with “100” for “12.5”; assay type: functional, Lung
[27] = test system: Mycobacterium tuberculosis; experiment: Antimycobacterial activity against Mycobacterium tuberculosis H37Rv incubated for 5 days in presence of 25% mouse serum by Bactiter-Glo assay; assay type: functional; settings: 120 h
[28] = Time at which plasma concentration stays above invitro MIC80 in presence of mouse serum in Balb/c mouse infected with Mycobacterium tuberculosis H37Rv at 100 mg/kg, po administered through gavage as 90%/10% PEG200/vitamin -E TPGS formulation; assay type: ADME, organism-based; settings: in vivo
[29] = test system: Mycobacterium tuberculosis; experiment: Antimycobacterial activity against Mycobacterium tuberculosis H37Rv in 100000 bacteria inoculated agar plate; assay type: functional
[30] = Ratio of drug level in Mycobacterium tuberculosis H37Rv infected Balb/c mouse lung to plasma at 100 mg/kg, po administered through gavage as 90%/10% PEG200/vitamin -E TPGS formulation; assay type: ADME, organism-based; settings: lung and plasma
[31] = test system: Mycobacterium tuberculosis; experiment: Antimycobacterial activity against Mycobacterium tuberculosis H37Rv infected in Balb/c mouse assessed as bacterial burden in lungs at 10 to 300 mg/kg administered daily through gavage for 4 days separated by 2 days drug wash out followed by second 4 days drug treatment; assay type: functional, Lung

Cn1c(NCCc2ccc(-c3ccc(F)cc3)cc2)nc2cc(Cl)ccc2c1=O
Activity [1]: 7.7 log10CFU
MIC80 [2]: 0.003 µM (≈ 0.00122 µg/mL)
permeability [3]: Permeable
solubility thermodynamic [4]: < 0.001 mg/mL
half-life [5]: 8 h
IC50 (Cytochrome P450 3A4 [6]): 18 µM
IC50 at 40 h [7]: 22 µM
minimal effective dose [8]: 300 mg/kg
Ratio [9]: 8
MIC80 [10]: 0.06 µM (≈ 0.0245 µg/mL)
Activity [11]: 7.6 log10CFU
fraction unbound at 4 h [12]: 0.001
MIC80 [13]: 0.025 µM
AUC [14]: 76000 ng·h/mL
logP [15]: 5.28
MIC [16]: 0.016 µg/mL (≈ 0.0392 µM)
Activity [17]: 0.78 log10CFU
solubility [18]: 20 mg/mL (≈ 49000 µM)
fraction unbound at 4 h [19]: 0.001
Time [20]: > 24 h
Activity [21]: 7.6 log10CFU
IC50 (Cytochrome P450 3A4 [22]): > 30 µM
Activity [23]: 7.4 log10CFU
solubility thermodynamic [24]: < 0.001 mg/mL
bioavailability [25]: 73%
Activity [26]: 7.6 log10CFU
MIC80 [27]: 0.034 µM
Time [28]: > 24 h
MIC [29]: 2 µg/mL (≈ 4.9 µM)
Kp [30]: 14
Activity [31]: 1.5 log10CFU
